Assay results taken from US10202361B2, “Pyridazinones as herbicides” (E I DU PONT DE NEMOURS AND COMPANY, priority 2014, dated 2019).
Read-outs that look alike come from different tables or passages of the source.

Columns and labels:
Type in all cases: in vivo
[1] = test system: chickweed (common chickweed, Stellaria media); assay: Test C postemergence greenhouse herbicide test
[2] = test system: galium (catchweed bedstraw, Galium aparine); assay: Test C pre-/postemergence greenhouse herbicide test; conditions: Galium, read-out: Plant response rating; for pest or weed control at 31 g/ha: 31 g ai/ha; for pest or weed control at 62 g/ha: 62 g ai/ha; for pest or weed control at 125 g/ha: 125 g ai/ha; for pest or weed control at 250 g/ha: 250 g ai/ha
Outline: (§1)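 Greenhouse pre- and postemergence screen: compounds in a non-phytotoxic solvent mix plus surfactant were applied to soil/sand-sown seeds or to 1- to 4-leaf plants. Visual rating 13–15 d later, 0 (no effect) to 100 (complete control).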

[3] = test system: johnsongrass (Sorghum halepense); assay: as above; conditions: Sorghum halepense, Johnsongrass, read-out: Plant response rating; for pest or weed control at 31 g/ha: 31 g ai/ha; for pest or weed control at 62 g/ha: 62 g ai/ha; for pest or weed control at 125 g/ha: 125 g ai/ha; for pest or weed control at 250 g/ha: 250 g ai/ha
Outline: as §1

[4] = test system: crabgrass, Large (large crabgrass, Digitaria sanguinalis); assay: as above; conditions: Digitaria sanguinalis, Crabgrass, Large, read-out: Plant response rating; for pest or weed control at 31 g/ha: 31 g ai/ha; for pest or weed control at 62 g/ha: 62 g ai/ha; for pest or weed control at 125 g/ha: 125 g ai/ha; for pest or weed control at 250 g/ha: 250 g ai/ha
Outline: as §1

[5] = test system: ragweed (common ragweed, Ambrosia elatior); assay: as above; conditions: Ambrosia artemisiifolia, Ragweed, read-out: Plant response rating; for pest or weed control at 31 g/ha: 31 g ai/ha; for pest or weed control at 62 g/ha: 62 g ai/ha; for pest or weed control at 125 g/ha: 125 g ai/ha; for pest or weed control at 250 g/ha: 250 g ai/ha
Outline: as §1

kochia (Kochia scoparia) = assay: as above; conditions: Postemergence
Outline: as §1

[6] = test system: oat, wild (wild oat, Avena fatua); assay: as above; conditions: Postemergence
Outline: as §1

[7] = test system: nutsedge, yellow (yellow nutsedge, Cyperus esculentus); assay: as above; conditions: Cyperus, Nutsedge, Yellow, read-out: Plant response rating; for pest or weed control at 31 g/ha: 31 g ai/ha; for pest or weed control at 62 g/ha: 62 g ai/ha; for pest or weed control at 125 g/ha: 125 g ai/ha; for pest or weed control at 250 g/ha: 250 g ai/ha
Outline: as §1

[8] = test system: ryegrass, Italian (Italian ryegrass, Lolium multiflorum); assay: as above; conditions: Lolium multiflorum, Ryegrass, Italian, read-out: Plant response rating; for pest or weed control at 31 g/ha: 31 g ai/ha; for pest or weed control at 62 g/ha: 62 g ai/ha; for pest or weed control at 125 g/ha: 125 g ai/ha; for pest or weed control at 250 g/ha: 250 g ai/ha
Outline: as §1

corn (Zea mays) = assay: as above; conditions: Zea mays, Corn, read-out: Plant response rating; for plant injury at 31 g/ha: 31 g ai/ha; for plant injury at 62 g/ha: 62 g ai/ha; for plant injury at 125 g/ha: 125 g ai/ha; for plant injury at 250 g/ha: 250 g ai/ha
Outline: as §1

[9] = test system: lambsquarters (Chenopodium album); assay: as above
Outline: as §1

[10] = test system: oilseed rape (Brassica napus); assay: as above; conditions: Oilseed Rape
Outline: as §1

[11] = test system: pigweed (Amaranthus retroflexus); assay: as above; conditions: Amaranthus retroflexus, Pigweed, read-out: Plant response rating; for pest or weed control at 31 g/ha: 31 g ai/ha; for pest or weed control at 62 g/ha: 62 g ai/ha; for pest or weed control at 125 g/ha: 125 g ai/ha; for pest or weed control at 250 g/ha: 250 g ai/ha
Outline: as §1

## COc1cc(=O)n(-c2ccc(C(F)(F)F)cc2)nc1Cc1ccnc(C(F)(F)F)c1 [Compound 16, 5-methoxy-2-[4-(trifluoromethyl)phenyl]-6-[[2-(trifluoromethyl)-4-pyridinyl]methyl]-3(2H)-pyridazinone]
[1]; 31 g ai/ha
  Plant response rating: 80
[1]; 62 g ai/ha
  Plant response rating: 90
[1]; 125 g ai/ha
  Plant response rating: 90
[1]; 250 g ai/ha
  Plant response rating: 98
[2]; post-emergence, Postemergence
  pest or weed control at 31 g/ha: 80%
  pest or weed control at 62 g/ha: 80%
  pest or weed control at 125 g/ha: 90%
  pest or weed control at 250 g/ha: 90%
[2]; pre-emergence, Preemergence
  pest or weed control at 31 g/ha: 70%
  pest or weed control at 62 g/ha: 98%
  pest or weed control at 125 g/ha: 100%
  pest or weed control at 250 g/ha: 100%
[3]; post-emergence, Postemergence
  pest or weed control at 31 g/ha: 10%
  pest or weed control at 62 g/ha: 10%
  pest or weed control at 125 g/ha: 20%
  pest or weed control at 250 g/ha: 35%
[3]; pre-emergence, Preemergence
  pest or weed control at 31 g/ha: 60%
  pest or weed control at 62 g/ha: 75%
  pest or weed control at 125 g/ha: 85%
  pest or weed control at 250 g/ha: 98%
[4]; post-emergence, Postemergence
  pest or weed control at 31 g/ha: 10%
  pest or weed control at 62 g/ha: 25%
  pest or weed control at 125 g/ha: 30%
  pest or weed control at 250 g/ha: 35%
[4]; pre-emergence, Preemergence
  pest or weed control at 31 g/ha: 98%
  pest or weed control at 62 g/ha: 98%
  pest or weed control at 125 g/ha: 100%
  pest or weed control at 250 g/ha: 100%
[5]; post-emergence, Postemergence
  pest or weed control at 31 g/ha: 15%
  pest or weed control at 62 g/ha: 25%
  pest or weed control at 125 g/ha: 60%
  pest or weed control at 250 g/ha: 60%
[5]; pre-emergence, Preemergence
  pest or weed control at 31 g/ha: 20%
  pest or weed control at 62 g/ha: 65%
  pest or weed control at 125 g/ha: 65%
  pest or weed control at 250 g/ha: 100%
Kochia (Kochia scoparia); 31 g ai/ha
  Plant response rating: 90
Kochia (Kochia scoparia); 62 g ai/ha
  Plant response rating: 90
Kochia (Kochia scoparia); 125 g ai/ha
  Plant response rating: 90
Kochia (Kochia scoparia); 250 g ai/ha
  Plant response rating: 90
[6]; 31 g ai/ha
  Plant response rating: 15
[6]; 62 g ai/ha
  Plant response rating: 30
[6]; 125 g ai/ha
  Plant response rating: 40
[6]; 250 g ai/ha
  Plant response rating: 60
[7]; post-emergence, Postemergence
  pest or weed control at 31 g/ha: 5%
  pest or weed control at 62 g/ha: 5%
  pest or weed control at 125 g/ha: 5%
  pest or weed control at 250 g/ha: 20%
[7]; pre-emergence, Preemergence
  pest or weed control at 31 g/ha: 5%
  pest or weed control at 62 g/ha: 10%
  pest or weed control at 125 g/ha: 30%
  pest or weed control at 250 g/ha: 55%
[8]; post-emergence, Postemergence
  pest or weed control at 31 g/ha: 5%
  pest or weed control at 62 g/ha: 5%
  pest or weed control at 125 g/ha: 15%
  pest or weed control at 250 g/ha: 35%
[8]; pre-emergence, Preemergence
  pest or weed control at 31 g/ha: 5%
  pest or weed control at 62 g/ha: 30%
  pest or weed control at 125 g/ha: 85%
  pest or weed control at 250 g/ha: 90%
Corn (Zea mays); post-emergence, Postemergence
  plant injury at 31 g/ha: 20%
  plant injury at 62 g/ha: 40%
  plant injury at 125 g/ha: 40%
  plant injury at 250 g/ha: 55%
Corn (Zea mays); pre-emergence, Preemergence
  plant injury at 31 g/ha: 45%
  plant injury at 62 g/ha: 60%
  plant injury at 125 g/ha: 75%
  plant injury at 250 g/ha: 75%
[9]; Postemergence, 31 g ai/ha
  Plant response rating: 70
[9]; Postemergence, 62 g ai/ha
  Plant response rating: 95
[9]; Postemergence, 125 g ai/ha
  Plant response rating: 95
[9]; Postemergence, 250 g ai/ha
  Plant response rating: 95
[9]; Preemergence, 31 g ai/ha
  Plant response rating: 100
[9]; Preemergence, 62 g ai/ha
  Plant response rating: 100
[9]; Preemergence, 125 g ai/ha
  Plant response rating: 100
[9]; Preemergence, 250 g ai/ha
  Plant response rating: 100
[10]; Postemergence, 31 g ai/ha
  Plant response rating: 60
[10]; Postemergence, 62 g ai/ha
  Plant response rating: 60
[10]; Postemergence, 125 g ai/ha
  Plant response rating: 80
[10]; Preemergence, 31 g ai/ha
  Plant response rating: 65
[10]; Preemergence, 62 g ai/ha
  Plant response rating: 100
[10]; Preemergence, 125 g ai/ha
  Plant response rating: 100
[10]; Preemergence, 250 g ai/ha
  Plant response rating: 100
[11]; post-emergence, Postemergence
  pest or weed control at 31 g/ha: 55%
  pest or weed control at 62 g/ha: 90%
  pest or weed control at 125 g/ha: 95%
  pest or weed control at 250 g/ha: 95%
[11]; pre-emergence, Preemergence
  pest or weed control at 31 g/ha: 100%
  pest or weed control at 62 g/ha: 100%
  pest or weed control at 125 g/ha: 100%
  pest or weed control at 250 g/ha: 100%
